These results are taken from PMC9645375, “Pattern enrichment analysis for phage selection of stapled peptide ligands” (Chemical Science, 2022).

The nature of series [1]: CD measurement of helical content. The format is physicochemical.
Series [2] deals with interaction between SARS-CoV-2 spike RBD and ACE2 (Severe acute respiratory syndrome coronavirus 2, UniProt P0DTC2). Kind of series: biochemical. In kind it is binding. The conditions noted are these: n = 3.
The target in series [3] is T1, HDM2 (human double minute 2) (Homo sapiens, UniProt Q00987).
T1 construct: His-tag; made in house
T1 sequence (Q00987 whole entry): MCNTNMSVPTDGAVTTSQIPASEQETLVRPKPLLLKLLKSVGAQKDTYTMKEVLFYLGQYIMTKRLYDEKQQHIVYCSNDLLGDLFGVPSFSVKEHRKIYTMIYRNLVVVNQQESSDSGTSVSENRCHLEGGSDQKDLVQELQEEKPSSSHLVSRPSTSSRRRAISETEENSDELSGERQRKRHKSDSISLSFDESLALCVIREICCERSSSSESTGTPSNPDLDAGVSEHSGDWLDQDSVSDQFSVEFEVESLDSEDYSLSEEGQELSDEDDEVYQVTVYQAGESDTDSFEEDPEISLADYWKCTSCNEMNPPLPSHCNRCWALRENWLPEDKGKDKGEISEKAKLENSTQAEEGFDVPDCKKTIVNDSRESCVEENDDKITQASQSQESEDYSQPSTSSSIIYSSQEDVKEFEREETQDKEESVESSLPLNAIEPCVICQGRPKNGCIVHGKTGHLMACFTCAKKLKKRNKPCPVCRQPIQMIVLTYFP
Kind of series: Fluorescence polarisation competition binding assay against FAM-ATSP-3848. To be noted: for inhibition of FAM-ATSP-3848 binding to HDM2 (in words): fluorescence polarisation, 100 nM HDM2, 10 nM FAM-ATSP-3848. The procedure: Fig. 4 Position–amino acid pattern enrichment analysis of the HDM2-R3 pool. (a) Pattern enrichment score calculation. For both sequence data (FASTQ), the abundance of each position–amino acid pattern was determined. Enrichment values were calculated as the ratio of abundance in the selected sample to that in the control sample. (b) Venn diagram showing pattern coverage (white, whole space of three-window patterns; blue, patterns found in Amp-R3 dataset; red, patterns found in HDM2-R3 dataset). (c) Scattering plot indicating the abundance of control (x-axis) and HDM2-R3 selected sample (y-axis). Red circles are patterns with log2(ratio) values greater than 8. (d) Position–amino acid patterns ranked in the top 20. (e) WebLogo depicting enriched sequences determined from enriched patterns with log2(ratio) values greater than 8. (f) Sequences and helical wheel diagrams of HDM2-p13 and HDM2-opt peptides. Highly enriched residues are coloured red. (g) Fluorescence polarisation assay for competitive inhibition. Peptides (50 nM to 50 μM) were mixed with 100 nM HDM2 and 10 nM FAM-ATSP-3848. […] Error bar represents SD (n = 3).
Competition binding assay
The peptides (50 nM–50 µM) was mixed with 100 nM of HDM2 and 10 nM of FAM-AT P S-3848 in HBS buffer (10 mM HEPES, 150 mM NaCl, pH 7.5). The fluorescence polarization was measured by ARVO MX plate […]
values of peptide inhibitors were calculated by nonlinear regression analysis using Prism (GraphPad Software).
Pull-down competition binding assay
Recombinant SARS-CoV-2 Spike RBD His Biotin Protein (R&D Systems, BT10500) at 4 µg/mL concentration in HBS buffer was incubated with 3 mg/mL of DynaBeads M-280 (ThermoFisher) for 2 hours at 4 °C. […]
After one hour incubation at room temperature, the beads were rinsed three times with HBS-T ( 2 0 0 µL/well). […] The chemiluminescent bands were detected using LuminoGraphI (ATTO) with ImageSaver6 software. From the band intensities, IC50 values of peptide inhibitors were calculated by nonlinear regression analysis using Prism (GraphPad Software).

Numbered stars: 1 amine (or outer) side, 2 acyl side, 3 side chain; on linkers, the order of the positions; unused ones are H or OH. Bridge positions count the residues as written; N and C are the ends. Peptide text beside a SMILES is read from it. X1 = O=C(C[*:1])NCCCCCNC(=O)C[*:2]

`CC(C)C[C@@H]1NC(=O)[C@@H](NC(=O)[C@@H](N)[C@@H](C)O)CSCC(=O)NCCCCCNC(=O)CSC[C@@H](C(=O)N[C@@H](Cc2ccccc2)C(N)=O)NC(=O)[C@H](CCC(=O)O)NC(=O)[C@H](Cc2ccccc2)NC(=O)[C@H](Cc2c[nH]c3ccccc23)NC(=O)[C@H](CO)NC(=O)[C@H](CO)NC1=O` [CoV-2-p2] (H-TCLSSWFECF-NH2; linker 2-9 via X1): the “conformational preference (in words)” value in series [1] was “prefer a helical conformation”. Moreover, the helical content in series [1] (pH 7.5) was found to be 45%. Further, the IC50 in series [2] came to 12.9 ± 4.9 µM.
In the case of `CC(C)C[C@@H]1NC(=O)[C@H](Cc2ccc(O)cc2)NC(=O)[C@H](CC(=O)O)NC(=O)[C@H](Cc2ccccc2)NC(=O)CNC(=O)[C@H](Cc2c[nH]c3ccccc23)NC(=O)[C@@H](NC(=O)[C@@H](N)[C@@H](C)O)CSCC(=O)NCCCCCNC(=O)CSC[C@@H](C(=O)N[C@@H](Cc2c[nH]c3ccccc23)C(N)=O)NC1=O` [CoV-2-p5] (H-TCWGFDYLCW-NH2; linker 2-9 via X1), in series [1] (pH 7.5), the helical content came out at 12%. For the same compound, the IC50 in series [2] stood at 3.8 ± 3.3 µM.
For the compound `CC(C)C[C@H](NC(=O)[C@@H]1CSCC(=O)NCCCCCNC(=O)CSC[C@H](NC(=O)[C@@H]2CCCN2)C(=O)N[C@@H](Cc2ccccc2)C(=O)N[C@@H](Cc2ccc(O)cc2)C(=O)N[C@@H](CC(=O)O)C(=O)N[C@@H](Cc2ccc(O)cc2)C(=O)N[C@@H](Cc2c[nH]c3ccccc23)C(=O)N[C@@H](CCC(N)=O)C(=O)N1)C(N)=O` [HDM2-opt] (H-PCFYDYWQCL-NH2; linker 2-9 via X1), in series [3], the “inhibition of FAM-ATSP-3848 binding to HDM2 (in words)” value is recorded as “exhibited effective inhibition”.
Consider `CC(C)C[C@H](NC(=O)[C@@H]1CSCC(=O)NCCCCCNC(=O)CSC[C@H](NC(=O)[C@H](C)N)C(=O)N[C@@H](Cc2ccccc2)C(=O)N[C@@H](CC(=O)O)C(=O)N[C@@H](CCC(=O)O)C(=O)N[C@@H](Cc2ccc(O)cc2)C(=O)N[C@@H](Cc2c[nH]c3ccccc23)C(=O)N[C@@H](CCC(N)=O)C(=O)N1)C(N)=O` [HDM2-p13] (H-ACFDEYWQCL-NH2; linker 2-9 via X1), for which the IC50 in series [3] (competitive inhibition FP, peptides 50 nM to 50 μM, 100 nM HDM2, 10 nM FAM-ATSP-3848, HBS buffer (10 mM HEPES, 150 mM NaCl, pH 7.5), SD, n = 3) came out at 4.8 ± 0.6 µM. Also, in series [3], the “inhibition of FAM-ATSP-3848 binding to HDM2 (in words)” value is reported as “inhibited the high-affinity binding”. Besides, in series [1] (CD, 25% TFE, 30 µM peptide, HBS buffer (10 mM HEPES, 150 mM NaCl, pH 7.5), calculated by BeStSel web server), the helical content is 43%.
